In PubChem BioAssay AID248 (DTP/NCI, 2004):
Where “and” joins values, the source holds several entries; their conditions need not be identical. Identical values can stand only once. Toxic doses and inconclusive results are not listed.

Tested on: L1210 leukemia ip in BDF1 mice, survival T/C
Assay: NCI In Vivo Anticancer Drug Screen. Data for tumor model L1210 Leukemia (intraperitoneal) in B6D2F1 (BDF1) mice
Details: endpoint: mean survival time, higher = longer survival
In short: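 Tumor cells were implanted, animals were treated, and survival was followed. The result divides the treated measurement by the vehicle-control measurement.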

CC(=O)Nc1ccn(C2OC(COC(C)=O)C(OC(C)=O)C2OC(C)=O)c(=O)n1 (stereo not given)
T/C (dose: 6.3 mg/kg/injection, schedule: Q## X090 (ip), vehicle: carboxymethylcellulose (CMC)): 94 % of control | T/C (dose: 12.5 mg/kg/injection, schedule: Q## X090 (ip), vehicle: carboxymethylcellulose (CMC)): 102 % of control | T/C (dose: 18.0 mg/kg/injection, schedule: Q03HX024 (ip), vehicle: other): 114 % of control | T/C (dose: 25.0 mg/kg/injection, schedule: Q## X090 (ip), vehicle: carboxymethylcellulose (CMC)): 97 % of control | T/C (dose: 50.0 mg/kg/injection, schedule: Q## X090 (ip), vehicle: carboxymethylcellulose (CMC)): 102 % of control | T/C (dose: 53.0 mg/kg/injection, schedule: Q01DX Z (ip), vehicle: carboxymethylcellulose (CMC)): 106 % of control | T/C (dose: 75.0 mg/kg/injection, schedule: Q03HX024 (ip), vehicle: other): 168 % of control | T/C (dose: 79.0 mg/kg/injection, schedule: Q01DX Z (ip), vehicle: carboxymethylcellulose (CMC)): 107 % of control | T/C (dose: 119.0 mg/kg/injection, schedule: Q01DX Z (ip), vehicle: carboxymethylcellulose (CMC)): 109 % of control | T/C (dose: 125.0 mg/kg/injection, schedule: Q01DX009 (oral), vehicle: carboxymethylcellulose (CMC)): 115 % of control | T/C (dose: 125.0 mg/kg/injection, schedule: Q03HX024 (oral), vehicle: carboxymethylcellulose (CMC)): 111 % of control | T/C (dose: 125.0 mg/kg/injection, schedule: Q03HX024 (oral), vehicle: water): 123 % of control | T/C (dose: 150.0 mg/kg/injection, schedule: Q03HX024 (ip), vehicle: other): 195 % of control | T/C (dose: 150.0 mg/kg/injection, schedule: Q04DX003 (ip), vehicle: other): 108 % of control | T/C (dose: 178.0 mg/kg/injection, schedule: Q01DX Z (ip), vehicle: carboxymethylcellulose (CMC)): 119 % of control | T/C (dose: 178.0 mg/kg/injection, schedule: Q01DX Z (ip), vehicle: saline): 116 % of control | T/C (dose: 200.0 mg/kg/injection, schedule: Q01DX001 (ip), vehicle: carboxymethylcellulose (CMC)): 101 % of control | T/C (dose: 200.0 mg/kg/injection, schedule: Q01DX010 (oral), vehicle: carboxymethylcellulose (CMC)): 112 % of control | T/C (dose: 250.0 mg/kg/injection, schedule: Q03HX024 (oral), vehicle: carboxymethylcellulose (CMC)): 113 % of control | T/C (dose: 250.0 mg/kg/injection, schedule: Q03HX024 (oral), vehicle: water): 121 % of control | T/C (dose: 300.0 mg/kg/injection, schedule: Q03HX024 (ip), vehicle: other): 228 % of control | T/C (dose: 300.0 mg/kg/injection, schedule: Q04DX003 (ip), vehicle: other): 115 % of control | T/C (dose: 400.0 mg/kg/injection, schedule: Q01DX001 (ip), vehicle: carboxymethylcellulose (CMC)): 103 % of control | T/C (dose: 400.0 mg/kg/injection, schedule: Q01DX Z (ip), vehicle: saline): 163 % of control | T/C (dose: 500.0 mg/kg/injection, schedule: Q03HX024 (oral), vehicle: carboxymethylcellulose (CMC)): 124 % of control | T/C (dose: 600.0 mg/kg/injection, schedule: Q01DX009 (ip), vehicle: other): 177 % of control and 184 % of control | T/C (dose: 600.0 mg/kg/injection, schedule: Q01DX Z (ip), vehicle: carboxymethylcellulose (CMC)): 124 % of control and 246 % of control | T/C (dose: 600.0 mg/kg/injection, schedule: Q01DX Z (ip), vehicle: saline): 166 % of control | T/C (dose: 800.0 mg/kg/injection, schedule: Q01DX001 (ip), vehicle: carboxymethylcellulose (CMC)): 101 % of control | T/C (dose: 900.0 mg/kg/injection, schedule: Q01DX Z (ip), vehicle: carboxymethylcellulose (CMC)): 175 % of control | T/C (dose: 1000.0 mg/kg/injection, schedule: Q03HX024 (oral), vehicle: carboxymethylcellulose (CMC)): 122 % of control | T/C (dose: 1000.0 mg/kg/injection, schedule: Q03HX024 (oral), vehicle: water): 208 % of control | T/C (dose: 1200.0 mg/kg/injection, schedule: Q01DX009 (ip), vehicle: other): 213 % of control and 228 % of control | T/C (dose: 1200.0 mg/kg/injection, schedule: Q04DX003 (ip), vehicle: other): 159 % of control | T/C (dose: 1350.0 mg/kg/injection, schedule: Q01DX Z (ip), vehicle: carboxymethylcellulose (CMC)): 295 % of control | T/C (dose: 1600.0 mg/kg/injection, schedule: Q01DX001 (ip), vehicle: carboxymethylcellulose (CMC)): 124 % of control | T/C (dose: 1600.0 mg/kg/injection, schedule: Q01DX010 (oral), vehicle: carboxymethylcellulose (CMC)): 214 % of control | T/C (dose: 2000.0 mg/kg/injection, schedule: Q03HX024 (oral), vehicle: water): 226 % of control | T/C (dose: 2400.0 mg/kg/injection, schedule: Q01DX009 (ip), vehicle: other): 112 % of control | T/C (dose: 2400.0 mg/kg/injection, schedule: Q04DX003 (ip), vehicle: other): 214 % of control
